Measurements as given in a compilation of properties of binary mixtures (doi:10.1016/j.molliq.2022.119417).

Experiment: xn = mol fraction of the nth substance listed
Details: 100 kPa

CC[n+]1ccn(C)c1.O=S(=O)([O-])O + OCCO
viscosity [mPa·s]
Details	x1 = 0.125	x1 = 0.143	x1 = 0.167	x1 = 0.2	x1 = 0.25	x1 = 0.33	x1 = 0.5
298.15 K	19	21	24	28	35	52	95
303.15 K	–	17	20	23	29	43	–
308.15 K	13	15	17	19	–	35	62
313.15 K	11	–	14	16	20	–	50
318.15 K	9	11	–	14	18	25	42
323.15 K	8	9	10	12	15	–	35
